Results as given in patent US20190365927A1, “COMPOSITION FOR PHOTODYNAMIC THERAPY USING GENE EXPRESSING FLUORESCENT PROTEIN AND PHOTOSENSITIZER, AND PHOTODYNAMIC THERAPY METHOD USING SAME” (priority 2017, published 2019).

Tested on: eGFP− 4T1 cells
Test: In vitro PDT with rose bengal and blue laser light, MTT analysis
Format: cell-based, Mus musculus
Conditions: 473 nm laser light after RB treatment, similar conditions, FIG. 2A
Description: The photo inducing death of GFP− and GFP+ cells after blue light irradiation was measured by MTT analysis in the presence or absence of rose bengal (RB). The specific experimental procedure is as follows.
RB was diluted with DMEM containing 10% FBS to produce RB at concentrations of 6.25, 12.5, 25, 50, and 100 μM. GFP− and GFP+ cells were pre-incubated in 96-well, black, and clear bottom plates at a density of 2×10^4 cells per well. Then cells were incubated with RB for 4 hours. The addition of a fresh culture medium without photosensitizer to the wells was performed. This was used as an untreated control. Cells were washed 3 times with PBS buffer.
In the PDT-treated group, the cell was irradiated with blue laser light (473 nm, radiation dose rate=80 mW/cm^2) for 1 to 60 seconds. The toxicity of pure RB on GFP+ and GFP− cells was measured in the dark room. After the irradiation, the fresh culture medium was added to the wells, and cells were cultured again for 24 hours. The medium was then measured by MTT assay. […] The absorbance of the reaction solution was measured at 570 nm. Cell viability was calculated by the following equation: […]
Each experiment was performed independently. Cell death was measured by LDH analysis.
Th cells were seeded on a 24-well plate at a density of 5×10^4 per well. […] The absorbance was measured at 490 nm using a plate reader.

## O=C1OC2(c3cc(I)c(O)c(I)c3Oc3c2cc(I)c(O)c3I)c2c(Cl)c(Cl)c(Cl)c(Cl)c21 [RB, rose bengal]
  eGFP− cells killed: 20%
